Each structure is given as a SMILES string.

One may read the melting point as the temperature, or range, at which the solid turns liquid. Take `O=C(O)COc1c(-c2cccc(C(F)(F)F)c2)cc(C(=O)NCCCCCCc2ccccc2)cc1-c1cccc(C(F)(F)F)c1`: the melting point is 166 to 169 °C.
For `Cc1ccc(S(=O)(=O)OC[C@H]2COc3ccc([N+](=O)[O-])c(CC(=O)O)c3O2)cc1` the value was 158 to 159 °C.
Under `CCc1[nH]n(C2CCCC2)c2nc(Cc3cccc(O)c3)nc(=O)c1-2` stands 195 to 197 °C; under `COC1CCN(S(=O)(=O)c2ccc(S(N)(=O)=O)c(Cl)c2)CC1`, 165 to 167 °C; under `COc1ccc(Sc2ccc(NC(=N)N)cc2)cc1`, 140 to 141 °C.
`Cc1ccc(CCCNCC(O)c2cccc(C(F)(F)F)c2)cc1` (stereo unspecified): the melting point was in the range of 52 to 55 °C.
For `CC(=O)N[C@@H](C)COc1cnc(-c2nc3ccc(OCC4CC4)cc3o2)c(F)c1` the value was 158 to 159 °C; for `CCn1cc(CN(C(=O)C2CCc3ccccc32)c2ccc(C(C)C)cc2)cn1` (stereo unspecified), 83 to 84 °C; for `O=C(Nc1nc2n(n1)Cc1ccccc1-2)c1ccccc1`, 220 to 221 °C.
Compound `CCOC(=O)Cc1cccc2c(-c3ccc(N)cc3)nccc12` gave a melting point of 129 to 132 °C.
For `CCCCCCSCCSCCSc1nc2nc(C)cc(O)n2n1` the value was 119 to 121 °C; for `COc1ccc2cc3c(Cl)c(C#N)cnc3cc2c1`, 258 to 260 °C; for `CNC(=NS(=O)(=O)c1ccc(C)cc1)Nc1cc(C(C)c2ccc(-c3ccccc3)c(F)c2)on1` (stereo unspecified), 125 to 127 °C.
Under `CC(Cn1cc(Cl)c(-c2ccccc2Cl)n1)C(=O)N(C)C` (stereo unspecified) stands 91 to 92 °C; under `COC(=O)CCc1cn(Cc2ccc(O)cc2)nc1-c1ccccc1`, 87 to 88 °C.
For `CCCN(CC(=O)Nc1c(SC)nc(C)nc1N(CC)CC)c1ccccc1` the value was 173 to 175 °C.
Regarding `CCOc1nc2cccc(C(=O)O)c2n1Cc1ccc(-c2ccccc2)c(-c2nnn[nH]2)c1`, the melting point was 183 to 185 °C.
For `CNc1ncc2c(-c3cccc(Cl)c3)cc(-c3cccc(C(=O)O)c3)c(OC)c2n1` the value was 270 °C; for `CCOC(=O)C(CC(=O)OC1CC2CCC1(C)C2(C)C)(NC(=O)OCc1ccccc1)C(N)=O` (stereo unspecified), 105 to 106 °C.
For `COc1cc2c(cc1Cl)CC(C)OC2c1ccc([N+](=O)[O-])cc1` (stereo unspecified) the value was 118 to 120 °C; for `OCc1nccc2c1[nH]c1ccccc12`, 228 to 230 °C; for `CCCCC(CC)COc1ccc2cc3cc(OCC(CC)CCCC)ccc3cc2c1` (stereo unspecified), 60 to 62 °C.
For `CCOC(=O)C(=CNc1nncs1)C(=O)c1cc(F)c(Cl)nc1Cl` the value was 137 to 140 °C; for `CN(C)C1CCN(c2nc(N3CCOCC3)c3ncnc(NCCCc4ccccc4)c3n2)CC1`, 82 to 84 °C; for `CC(C)n1c(=S)nc(-c2ccccc2)c2cc3c(cc21)OCO3`, 202 to 205 °C.
Regarding `CC(C)CC(NC(=O)OCc1ccccc1)C(=O)NC(Cc1cccc2ccccc12)C(=O)CSCc1ccco1` (stereo unspecified), the melting point was 71 to 74 °C.
`CCOC(=O)C(C)Oc1ccc2c(=O)c(-c3ccccc3)coc2c1` (stereo unspecified) gave a melting point of 165 to 166 °C.
For `Cc1ccc(C2CC(N)=NN2c2nc3ccccc3s2)cc1` (stereo unspecified) the value was 282 to 285 °C.
For `O=C(Nc1c(C(O)(C(F)(F)F)C(F)(F)F)ccc2ccccc12)c1ccc(C(F)(F)F)cc1` the value was 191 to 192 °C; for `O=C(Nc1c([N+](=O)[O-])cnn1-c1c(Cl)cc(C(F)(F)F)cc1Cl)C1CCCO1` (stereo unspecified), 169 to 172 °C; for `O=C(Nc1cc(Cl)c(N2CCNCC2)c(Cl)c1)c1ccc(F)c(OCc2cccnc2)c1`, 81 to 85 °C.
For `CCCCCCCCCCCc1nnc2n1-c1ccccc1C(c1ccccc1)OC2` (stereo unspecified) the value was 83 to 84 °C.
For `COc1ccc(-c2cccc(C(=O)O)c2)c2c1OC(C)(C)C2`, the melting point lay within 220 to 225 °C.
Under `CC(=O)c1ccccc1NC(C)c1c(Cl)cccc1Cl` (stereo unspecified) stands 123 °C.
Under `CCOC(=O)c1nn(-c2cccc(C)c2)c(=O)c2c(N)scc12` stands 190 to 191 °C; under `Cc1cccc(C(=O)NC2CN3CCC2CC3)c1C` (racemic), 160 to 161 °C.
On to `COc1cccc2c(Nc3ccccc3)nc(Cl)nc12`, for which the melting point was in the range of 245 to 246 °C.
For `CC(=NNC=O)c1ccncc1Cl` the value was 175 °C; for `Cc1cc(-c2c(F)cc3c(=O)c(C(=O)O)cn4c3c2S(=O)CC4C)cc(C)n1` (stereo unspecified), 294 to 295 °C.
The compound `O=C1CC(O)c2ccccc21` (stereo unspecified) yielded a melting point of 182 to 187 °C.
As to `OC1CCCc2nc3cc(Cl)ccc3c(NCc3ccccc3)c21` (stereo unspecified), the melting point worked out at 163 °C.
In turn, `O=C(O)c1nc2ccc(OCCCN3CCC(OC(c4ccccc4)c4ccccc4)CC3)nn2n1` returned a melting point of 173 to 177 °C.
For `CCON1CCC(NC(=O)Cc2c(C)cc(C)cc2C)(C(=O)OC)CC1` the value was 131 to 132 °C; for `CCOC(=O)NCCN1CCC(NC(=O)c2cc(Cl)c(N)c3c2OCCC3)CC1`, 160 °C.
In the case of `O=C(O)c1cccc(-c2ccc3c(c2)C(c2ccc(Cl)cc2Cl)CC3)c1` (stereo unspecified), the melting point fell in the range of 157 to 158 °C.
Turning to `Cc1cccc(NC(=O)c2cc(C(F)(F)F)nn2-c2ccccc2Cl)c1NC(=O)C(C)C`, the melting point was 215 to 220 °C.
As to `COCCc1ncc(CO)c(NCc2ccc(-c3ccccc3-c3nnnn3C(c3ccccc3)(c3ccccc3)c3ccccc3)cc2)n1`, the melting point fell in the range of 118 to 120 °C.
The compound `COc1ccc(OC)c(-c2ccc(C(C)=NOCCOc3ccc(CC4SC(=O)NC4=O)cc3)cc2)c1` (stereo unspecified) showed a melting point of 47 to 52 °C.
For `CC1(C)OC(=O)Nc2c(F)cc(-c3cc(F)cc(C#N)c3)cc21` the value was 256 to 257 °C; for `CN(C(=O)c1ccccc1NC(=O)CN1C(=O)c2ccccc2C1=O)c1ccccc1`, 138 °C.
Take `N#CC(=Cc1ccc(O)c(O)c1)C(=O)Nc1ccccc1`: the melting point was 258 °C.
`Cc1ccc(N(C)S(=O)(=O)c2cccs2)c2[nH]c(C3=NCC(CC(=O)O)S3)cc12` (stereo unspecified) registered a melting point of 269 to 270 °C.
Under `Nc1ccc(C=CC(=O)N2CCc3c([nH]c4ccccc34)C2c2ccc3c(c2)CCO3)cc1` (stereo unspecified) stands 183 °C; under `Cc1noc(NC(=O)c2c(O)ccc3cc(-c4cccc(O)c4)ccc23)c1C`, 108 °C.
For `CCOC(=O)C1=C(C)NC(c2cnc(N)s2)=NC1c1ccc(F)cc1Cl` (stereo unspecified) the value was 132 to 135 °C.
Under `Cc1ccc(C(=O)NC(NC(=S)Nc2cccnc2)C(C)C)cc1` (stereo unspecified) stands 184 to 186 °C; under `COCC(=O)[C@H](Cc1ccccc1)NC(=O)[C@H](CC(C)C)NC(=O)OCc1ccccc1`, 87 to 92 °C.
For the compound `CSc1ccc(-c2coc3ccc(-c4nnc(C)o4)cc23)cc1C`, the melting point was in the range of 185 to 186 °C.
Regarding `COC(=O)Cn1c(=S)sc2ccccc21`, the melting point lay in the range of 127 to 128 °C.
For `CCOC(=O)C(C)(C)N1OCC(CSC)=C(c2ccccc2)C1=O` the value was 105 to 106 °C.
Under `Cc1ccc(S(=O)(=O)NCCCCOc2ccc(-c3nnn[nH]3)cc2)cc1` stands 180 to 182 °C.
As for `CC(C)NC(=N)NC(=N)NOCCCOc1ccc(Cl)cc1`, the melting point lay in the range of 98 to 100 °C.
In turn, `COC(=O)C(C)(C)Cc1c(SC(C)(C)C)c2cc(OCc3ccc4cc(F)ccc4n3)ccc2n1Cc1ccc(Cl)cc1` returned a melting point of 165 to 167 °C.
`O=C1CCc2c(Cc3ccc(Cl)cc3)cccc21`: the melting point was in the range of 87 to 88 °C.
`Cc1cc(O)cc2oc(=O)ccc12` came in with a melting point of 256 °C.
Under `CCCN1CCN(C(=O)C(Cl)Cl)CC1` stands 88 °C; under `NC(=O)NCc1ccc(CNC(=O)[C@@H](CCCNC(N)=N[N+](=O)[O-])NC(=O)Nc2cccc3ccccc23)cc1`, 210 °C.
For `C=C(C)C(=O)CC/C(C)=C/CC/C(C)=C/C(N)=O`, the melting point was in the range of 42 to 44 °C.
For `CC(C)c1cc(C#N)cc(C(=O)Nc2ccn(C)n2)n1`, the melting point worked out at 174 °C.
`CS(=O)(=O)Nc1ccc(C(O)C2CCN(CCc3ccccc3)CC2)cc1` (stereo unspecified) displayed a melting point of 164 to 166 °C.
For `CCc1c(-c2ccncc2)[nH]c2ccc(C3=NNC(=O)CC3)cc12` the value was greater than 300 °C.
Under `CCN(c1nc(C)cc(C(=O)c2ccc(F)cc2)n1)c1ccc(C(C)C)cc1Br` stands 70 °C; under `Nc1ccc2c(c1)CN(Cc1ccccc1)C2`, 110 to 115 °C; under `CC(=O)NC[C@H]1CN(c2ccc(-c3noc(C(N)=O)n3)c(F)c2)C(=O)O1`, 218 to 220 °C.
`O=C1Nc2ccccc2N2CCN(c3ccccc3)CCN12` yielded a melting point of 198 to 199 °C.
Consider `CSN=C1C(=O)N2C(C(=O)OC(c3ccccc3)c3ccccc3)=C(CSc3nnnn3C)CSC12` (stereo unspecified), for which the melting point is 213 to 214 °C.
For `CC(C)N(O)C(=O)c1c(Cl)cccc1[Si](C)(C)C` the value was 175 to 179 °C.
For `COC(=O)N1CCC(C(C#N)(c2ccccc2)c2ccccc2)C1` (stereo unspecified) the value was 133 to 135 °C; for `CCOC(=O)c1cn(Cc2cn(-c3ccc(N4CC(CNC(=O)OC)OC4=O)cc3F)nn2)nc1N` (stereo unspecified), 98 to 100 °C.
As to `O=c1c2ccccc2nc(-c2cc(-c3ccc(Cl)cc3)c(N3CCOCC3)s2)n1-c1ccc(Cl)cc1`, the melting point lay within 240 to 243 °C.
Compound `CC(C)(C)OC(=O)NC1C(=O)N(OCc2ccccc2)C12CCOCC2` (stereo unspecified) showed a melting point of 144 to 146 °C.
Compound `CC(C)NC(=O)N1CCc2[nH]cnc2C1c1ccncc1` (stereo unspecified) gave a melting point of 212 °C.
The compound `O=C(CC1CCOCC1)N[C@H]1CC[C@H](CCN2CCC(c3ccc(F)c4occc34)CC2)CC1` returned a melting point of 188 °C.
For `CC(C)(c1ccc(C(C)(C)c2ccc(O)cc2O)cc1)c1ccc(O)cc1O` the value was 110 to 115 °C; for `Cc1oc(-c2ccco2)nc1/C=C/c1ccc(/C=C/C=C/C=O)cc1`, 179 to 180 °C; for `c1ccc(-c2cc3cnccc3[nH]2)cc1`, 276 to 278 °C.

(Values after a melting point compilation (Tetko et al.; mined from patent text by program, amines drawn as free bases though some values may be those of a salt).)
